pKi: −log10 of the molar value. Counter-ions that a name gives are not always drawn.

We go through ten molecules from BindingDB's records for doi:10.1007/bf02246453 (University of Turku, 1996).

5-hydroxytryptamine receptor 2A, sequence (P14842 whole entry): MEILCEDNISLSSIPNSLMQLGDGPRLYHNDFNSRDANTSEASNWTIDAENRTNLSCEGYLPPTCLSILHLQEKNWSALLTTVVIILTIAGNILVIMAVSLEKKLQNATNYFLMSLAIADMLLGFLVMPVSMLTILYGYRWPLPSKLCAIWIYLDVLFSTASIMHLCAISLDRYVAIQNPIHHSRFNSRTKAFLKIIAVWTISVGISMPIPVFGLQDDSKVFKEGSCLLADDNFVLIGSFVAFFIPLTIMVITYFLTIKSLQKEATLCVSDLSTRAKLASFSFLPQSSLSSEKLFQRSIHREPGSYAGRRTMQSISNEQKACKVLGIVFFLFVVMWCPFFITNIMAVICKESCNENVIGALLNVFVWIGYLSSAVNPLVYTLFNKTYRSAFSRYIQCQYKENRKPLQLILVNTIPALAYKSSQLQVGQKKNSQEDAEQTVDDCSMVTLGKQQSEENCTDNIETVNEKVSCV

The first assay has as its target 5-hydroxytryptamine receptor 2A (Rattus norvegicus, UniProt P14842).
As usually defined, the pKi is −log10 of the Ki, conventionally taken in molar units. Read a low pKi as a large Ki. `CN(C)CCC=C1c2ccccc2CCc2ccccc21` had a pKi of 8.37.

For a further assay, the target named is T1, 5-hydroxytryptamine receptor 2C (Rattus norvegicus, UniProt P08909).
T1 sequence (P08909 whole entry): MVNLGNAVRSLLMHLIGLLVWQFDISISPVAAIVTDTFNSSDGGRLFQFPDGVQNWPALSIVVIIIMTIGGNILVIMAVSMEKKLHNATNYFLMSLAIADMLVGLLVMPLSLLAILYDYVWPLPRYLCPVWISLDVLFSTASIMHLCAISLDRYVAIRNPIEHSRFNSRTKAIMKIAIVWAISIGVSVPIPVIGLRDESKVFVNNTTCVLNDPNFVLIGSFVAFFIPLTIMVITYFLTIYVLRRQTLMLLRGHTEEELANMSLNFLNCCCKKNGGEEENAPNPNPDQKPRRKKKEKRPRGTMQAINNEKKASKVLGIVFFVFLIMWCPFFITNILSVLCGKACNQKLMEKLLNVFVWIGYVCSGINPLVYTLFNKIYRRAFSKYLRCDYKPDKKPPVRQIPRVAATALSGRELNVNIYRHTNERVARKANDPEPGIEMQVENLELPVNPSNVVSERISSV
The molecule `O=c1n(CCCN2CCN(c3cccc(Cl)c3)CC2)nc2ccccn12` [2-{3-[4-(3-chlorophenyl)piperazin-1-yl]propyl}[1,2,4]triazolo[4,3-a]pyridin-3(2H)-one] showed a pKi of 6.71.

The molecule `CN(C)C/C=C(/c1ccc(Br)cc1)c1cccnc1` [cis-[3-(4-Bromo-phenyl)-3-pyridin-3-yl-allyl]-dimethyl-amine;HCl] gave a pKi of 6.00.

Molecule `CNCCC=C1c2ccccc2CCc2ccccc21` [NORTRIPTYLINE] showed a pKi of 8.07.

`NCC[C@H](Oc1ccc(C(F)(F)F)cc1)c1ccccc1` [NORFLUOXETINE] had a pKi of 6.80.

Turning to `CN(C)CCCN1c2ccccc2CCc2ccccc21`, the pKi was 7.03.

`CN(C)CCCC1(c2ccc(F)cc2)OCc2cc(C#N)ccc21` (stereo unspecified) [CITALOPRAM HYDROBROMIDE] showed a pKi of 6.57.

`CN(C)CCC=C1c2ccccc2CCc2ccccc21` had a pKi of 8.37.

On to `CN(C)CCCn1c2c(c3ccccc31)CCCCCC2` [CAS_5560-72-5], for which the pKi is 6.69.

Take `C#CCN(C)CCCOc1ccc(Cl)cc1Cl` [US8633208, Clorgyline]: the negative-log Ki (pKi) was 6.00.

The molecule `CNCCCN1c2ccccc2CCc2ccccc21` [Desmethylimipramine] had a negative logarithm of the Ki (pKi) of 6.61.
